{"source": "patent US20080207533A1", "about": "“Pharmaceutical Compositions” (priority 2005, published 2008)", "experiment": "Degradation (hydrolysis) of Compound I after wet granulation with water", "type": "physicochemical", "details": "granulation liquid deionized water; LOD value less than or equal to about 1% for the dried granulate", "experimental": "Once blended, a granulation liquid, deionized water, is added for wet kneading. The impeller and chopper speeds are increased to setting 2 (e.g., 306 rpm and 500 rpm, respectively, for the impeller and chopper). The kneading is conducted at room temperature. After granulation, the moist granulates are dried in a fluid-bed dryer with an air inlet temperature of approximately 70° C. to obtain granulates. The moist granulates are dried such that there is a LOD value below 1.0%. The granulates are subsequently sieved using a screen with a mesh size of 1.25 mm or 0.8 mm. As mentioned above, Compound I is a salt of an ester which is potentially sensitive to hydrolysis in the presence of water.", "note": "Counter-ions that a name gives are not always drawn.", "data": [{"smiles": "CC(C)[C@H](N)C(=O)O[C@@H]1[C@@H](CO)O[C@@H](n2ccc(N)nc2=O)[C@]1(C)O", "note": "[Compound I, dihydrochloride salt]", "values": [{"measurement": "degradation, e.g., due to hydrolysis, after wet granulation", "result": "does not result in an increase in degradation"}]}]}
